According to ChEMBL document CHEMBL1201862, “PubChem BioAssay data set” (2004):
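Dose response: 5 concentrations. Exposure: 48 h. Format: 96-well plates. Endpoint: linear interpolation; highest concentration if not reached. Here, GI50 denotes the concentration required for 50% inhibition of growth.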 Activity calls are given as the source filed them. No stated cut-off is given here; in the data, active = GI50 up to about 1.1 µM and inactive = higher.

Columns and labels:
Assay in all cases: inhibition of tumour cell growth, NCI panel, 48 h
EKVX = tested on: EKVX
Hs-578T = tested on: Hs-578T
K562 = tested on: K562
SF-539 = tested on: SF-539
NCI-H460 = tested on: NCI-H460
SK-MEL-5 = tested on: SK-MEL-5
OVCAR-8 = tested on: OVCAR-8
RPMI-8226 = tested on: RPMI-8226
SK-OV-3 = tested on: SK-OV-3
MDA-MB-231 = tested on: MDA-MB-231
NCI-H226 = tested on: NCI-H226
MOLT-4 = tested on: MOLT-4
HT-29 = tested on: HT-29
A498 = tested on: A498
CAKI-1 = tested on: CAKI-1
SK-MEL-28 = tested on: SK-MEL-28
SR = tested on: SR
KM12 = tested on: KM12
MDA-N = tested on: MDA-N
TK-10 = tested on: TK-10
Malme-3M = tested on: Malme-3M
SF-295 = tested on: SF-295
SNB-75 = tested on: SNB-75
UACC-257 = tested on: UACC-257
NCI-H23 = tested on: NCI-H23
SN12C = tested on: SN12C
LOX IMVI = tested on: LOX IMVI
RXF 393 = tested on: RXF 393
CCRF-CEM = tested on: CCRF-CEM
DU-145 = tested on: DU-145
SW-620 = tested on: SW-620
ACHN = tested on: ACHN
HCT-116 = tested on: HCT-116
UACC-62 = tested on: UACC-62
COLO 205 = tested on: COLO 205
U-251 = tested on: U-251
UO-31 = tested on: UO-31
MDA-MB-435 = tested on: MDA-MB-435
IGROV-1 = tested on: IGROV-1
M14 = tested on: M14
NCI/ADR-RES = tested on: NCI/ADR-RES
SNB-19 = tested on: SNB-19
NCI-H522 = tested on: NCI-H522
HL-60 = tested on: HL-60
SF-268 = tested on: SF-268
786-0 = tested on: 786-0
MCF7 = tested on: MCF7
HCC 2998 = tested on: HCC 2998
BT-549 = tested on: BT-549
OVCAR-4 = tested on: OVCAR-4
HOP-62 = tested on: HOP-62
OVCAR-3 = tested on: OVCAR-3
OVCAR-5 = tested on: OVCAR-5
T47D = tested on: T47D
A549 = tested on: A549
HCT-15 = tested on: HCT-15
PC-3 = tested on: PC-3
HOP-92 = tested on: HOP-92
SK-MEL-2 = tested on: SK-MEL-2

How did the GI50 (EKVX) turn out when CCc1nc(Cl)nc(Cl)c1Cl was run?
Its GI50 is 11.4 µM (inactive).

What about the GI50 (Hs-578T) of the same compound?
Its GI50 is 2.6 µM (inactive).

What about the GI50 (K562) of the same compound?
Its GI50 is 0.107 µM (active).

What about the GI50 (SF-539) of the same compound?
The GI50 was 3.36 µM (inactive).

What about the GI50 (NCI-H460) of the same compound?
Its GI50 is 7.98 µM (inactive).

And the GI50 (SK-MEL-5)?
The GI50 was 2.56 µM (inactive).

And the GI50 (OVCAR-8)?
Its GI50 is 1.04 µM (active).

What about the GI50 (RPMI-8226) of the same compound?
The GI50 was 0.0116 µM (active).

And the GI50 (SK-OV-3)?
Its GI50 is 6.41 µM (inactive).

What about the GI50 (MDA-MB-231) of the same compound?
Its GI50 is 1.63 µM (inactive).

And the GI50 (NCI-H226)?
Its GI50 is 6.5 µM (inactive).

What about the GI50 (MOLT-4) of the same compound?
The GI50 was 0.332 µM (active).

And the GI50 (HT-29)?
The GI50 was 0.394 µM (active).

And the GI50 (A498)?
Its GI50 is 4.94 µM (inactive).

What about the GI50 (CAKI-1) of the same compound?
The GI50 was 0.193 µM (active).

And the GI50 (SK-MEL-28)?
The GI50 was 4.95 µM (inactive).

What about the GI50 (SR) of the same compound?
The GI50 was 0.416 µM (active).

And the GI50 (KM12)?
Its GI50 is 3.48 µM (inactive).

What about the GI50 (MDA-N) of the same compound?
The GI50 was 1.77 µM (inactive).

What about the GI50 (TK-10) of the same compound?
The GI50 was 6.93 µM (inactive).

And the GI50 (Malme-3M)?
Its GI50 is 0.445 µM (active).

What about the GI50 (SF-295) of the same compound?
Its GI50 is 8.57 µM (inactive).

What about the GI50 (SNB-75) of the same compound?
Its GI50 is 5.53 µM (inactive).

And the GI50 (UACC-257)?
The GI50 was 0.547 µM (active).

And the GI50 (NCI-H23)?
The GI50 was 1.08 µM (active).

What about the GI50 (SN12C) of the same compound?
Its GI50 is 2.22 µM (inactive).

What about the GI50 (LOX IMVI) of the same compound?
Its GI50 is 0.0826 µM (active).

What about the GI50 (RXF 393) of the same compound?
The GI50 was 1.74 µM (inactive).

What about the GI50 (CCRF-CEM) of the same compound?
Its GI50 is 0.177 µM (active).

And the GI50 (DU-145)?
Its GI50 is 9.06 µM (inactive).

What about the GI50 (SW-620) of the same compound?
Its GI50 is 0.467 µM (active).

What about the GI50 (ACHN) of the same compound?
The GI50 was 0.34 µM (active).

And the GI50 (HCT-116)?
Its GI50 is 0.948 µM (active).

What about the GI50 (UACC-62) of the same compound?
The GI50 was 6.44 µM (inactive).

What about the GI50 (COLO 205) of the same compound?
Its GI50 is 0.284 µM (active).

What about the GI50 (U-251) of the same compound?
Its GI50 is 1.39 µM (inactive).

And the GI50 (UO-31)?
The GI50 was 0.276 µM (active).

And the GI50 (MDA-MB-435)?
The GI50 was 1.06 µM (active).

And the GI50 (IGROV-1)?
The GI50 was 3.72 µM (inactive).

And the GI50 (M14)?
The GI50 was 1.28 µM (inactive).

What about the GI50 (NCI/ADR-RES) of the same compound?
The GI50 was 2.52 µM (inactive).

What about the GI50 (SNB-19) of the same compound?
The GI50 was 3.59 µM (inactive).

What about the GI50 (NCI-H522) of the same compound?
The GI50 was 0.0494 µM (active).

What about the GI50 (HL-60) of the same compound?
The GI50 was 1.36 µM (inactive).

What about the GI50 (SF-268) of the same compound?
Its GI50 is 0.54 µM (active).

What about the GI50 (786-0) of the same compound?
The GI50 was 0.415 µM (active).

What about the GI50 (MCF7) of the same compound?
The GI50 was 0.403 µM (active).

What about the GI50 (HCC 2998) of the same compound?
The GI50 was 0.706 µM (active).

What about the GI50 (BT-549) of the same compound?
Its GI50 is 2.01 µM (inactive).

What about the GI50 (OVCAR-4) of the same compound?
The GI50 was 0.553 µM (active).

What about the GI50 (HOP-62) of the same compound?
Its GI50 is 8.05 µM (inactive).

And the GI50 (OVCAR-3)?
The GI50 was 0.535 µM (active).

What about the GI50 (OVCAR-5) of the same compound?
The GI50 was 0.7 µM (active).

What about the GI50 (T47D) of the same compound?
Its GI50 is 5.55 µM (inactive).

And the GI50 (A549)?
Its GI50 is 2.63 µM (inactive).

And the GI50 (HCT-15)?
Its GI50 is 0.318 µM.

And the GI50 (PC-3)?
The GI50 was 1.26 µM (inactive).

What about the GI50 (HOP-92) of the same compound?
Its GI50 is 2.11 µM (inactive).

Which results are given for O=C(O)c1cc2c(cc1CC(Cc1ccc3c(c1)CCC3)C(=O)O)CCC2 (stereo not given)?
GI50 (EKVX): > 100 µM (inactive); GI50 (Hs-578T): > 100 µM (inactive); GI50 (SF-539): > 100 µM (inactive); GI50 (NCI-H460): > 100 µM (inactive); GI50 (SK-MEL-5): > 100 µM (inactive); GI50 (OVCAR-8): > 100 µM (inactive); GI50 (RPMI-8226): > 100 µM (inactive); GI50 (SK-OV-3): > 100 µM (inactive); GI50 (MDA-MB-231): > 100 µM (inactive); GI50 (NCI-H226): > 100 µM (inactive); GI50 (MOLT-4): > 100 µM (inactive); GI50 (HT-29): > 100 µM (inactive); GI50 (A498): > 100 µM (inactive); GI50 (CAKI-1): > 100 µM (inactive); GI50 (SK-MEL-28): > 100 µM (inactive); GI50 (SR): > 100 µM (inactive); GI50 (KM12): > 100 µM (inactive); GI50 (MDA-N): > 100 µM (inactive); GI50 (SK-MEL-2): > 100 µM (inactive); GI50 (TK-10): > 100 µM (inactive); GI50 (Malme-3M): > 100 µM (inactive); GI50 (SF-295): > 100 µM (inactive); GI50 (SNB-75): 98.9 µM (inactive); GI50 (UACC-257): > 100 µM (inactive); GI50 (NCI-H23): > 100 µM (inactive); GI50 (SN12C): > 100 µM (inactive); GI50 (LOX IMVI): > 100 µM (inactive); GI50 (RXF 393): > 100 µM (inactive); GI50 (CCRF-CEM): > 100 µM (inactive); GI50 (DU-145): > 100 µM (inactive); GI50 (SW-620): > 100 µM (inactive); GI50 (ACHN): > 100 µM (inactive); GI50 (HCT-116): > 100 µM (inactive); GI50 (COLO 205): > 100 µM (inactive); GI50 (U-251): > 100 µM (inactive); GI50 (UO-31): > 100 µM (inactive); GI50 (MDA-MB-435): > 100 µM (inactive); GI50 (IGROV-1): > 100 µM (inactive); GI50 (M14): > 100 µM (inactive); GI50 (NCI/ADR-RES): > 100 µM (inactive); GI50 (SNB-19): > 100 µM (inactive); GI50 (NCI-H522): > 100 µM (inactive); GI50 (HL-60): > 100 µM (inactive); GI50 (SF-268): > 100 µM (inactive); GI50 (786-0): > 100 µM (inactive); GI50 (MCF7): > 100 µM (inactive); GI50 (HCC 2998): > 100 µM (inactive); GI50 (BT-549): > 100 µM (inactive); GI50 (OVCAR-4): > 100 µM (inactive); GI50 (HOP-62): > 100 µM (inactive); GI50 (OVCAR-3): > 100 µM (inactive); GI50 (OVCAR-5): > 100 µM (inactive); GI50 (T47D): > 100 µM (inactive); GI50 (A549): > 100 µM (inactive); GI50 (HCT-15): > 100 µM; GI50 (PC-3): > 100 µM (inactive); GI50 (HOP-92): 20.6 µM (inactive)
